Data published in US20100331315A1, “RHODANINES AND RELATED HETEROCYCLES AS KINASE INHIBITORS” (priority 2009, published 2010).
Where two headings read alike, the source gives them in different places.

What was measured:
recombinant PIM-1 = recombinant PIM-1 (Homo sapiens, UniProt P11309); assay: PIM-1 assay (33P-ATP filter plate); type: biochemical; settings: read-out: PIM1: IC50
Experimental: The following procedure was used to assay the PIM-1 kinase activity of compounds of the invention. Other methods for assaying PIM-1 and other PIM kinases, as well as methods to assay for activity against the various kinases are known in the art.
In a final reaction volume of 50 ul, recombinant PIM-1 (1 ng) was incubated with 12 mM MOPS pH 7.0, 0.4 mM EDTA, glycerol 1%, brij 35 0.002%, 2-mercaptoethanol 0.02%, BSA 0.2 mg/ml, 100 uM KKRNRTLTK, 10 mM MgAcetate, 15 uM ATP, [γ-^33P-ATP] (specific activity approx. 500 cpm/pmol), DMSO 4% and test inhibitor compound at the required concentration. The reaction was initiated by the addition of the Magnesium ATP mixture. After 40 min incubation at 23° C., the reactions were quenched by the addition of 100 ul 0.75% Phosphoric acid, and the labeled peptide collected by filtration through a phosphocellulose filter plate. The plate was washed 4 times with 0.075% phosphoric acid (100 ul per well) and then, after the addition of scintillation fluid (20 ul per well), the counts were measured by a scintillation counter.

[1] = tested on: MiaPaca human pancreatic carcinoma cells; assay: Alamar Blue cell proliferation assay, MiaPaCa; type: cell-based
Experimental: (§1) A representative cell-proliferation assay protocol using Alamar Blue dye (stored at 4° C., use 20 ul per well) is described hereafter.
(§2) a. Split and trypsinize cells.
(§3) b. Count cells using hemocytometer.
(§4) c. Plate 4,000-5,000 cells per well in 100 μl of medium and seed into a 96-well plate according to the following plate layout. Add cell culture medium only to wells B10 to B12. Wells B1 to B9 have cells but no compound added.
(§5) d. Add 100 μl of 2× drug dilution to each well in a concentration shown in the plate layout above. At the same time, add 100 μl of media into the control wells (wells B10 to B12). Total volume is 200 μl/well.
(§6) e. Incubate four (4) days at 37° C., 5% CO2 in a humidified incubator.
(§7) f. Add 20 μl Alamar Blue reagent to each well.
(§8) g. Incubate for four (4) hours at 37° C., 5% CO2 in a humidified incubator.
(§9) h. Record fluorescence at an excitation wavelength of 544 nm and emission wavelength of 590 nm using a microplate reader.
(§10) In the assays, cells are cultured with a test compound for approximately four days, the dye is then added to the cells and fluorescence of […] dye is detected after approximately four hours. Different types of cells can be utilized in the assays (e.g., HCT-116 human colorectal carcinoma cells, PC-3 human prostatic cancer cells and MiaPaca human pancreatic carcinoma cells).

recombinant human PIM2 = recombinant human PIM2 (Homo sapiens, UniProt Q9P1W9); assay: PIM-2 assay (33P-ATP filter plate); type: biochemical
Experimental: PIM-2 Assay Method: Test compounds dissolved and diluted in DMSO (2 μl) were added to a reaction mixture comprising 10 μl of 5× Reaction Buffer (40 mM MOPS pH 7.0, 5 mM EDTA), 10 μl of recombinant human PIM2 solution (4 ng PIM-2 dissolved in dilution buffer (20 mM MOPS pH 7.0; EDTA 1 mM; 5% Glycerol; 0.01% Brij 35; […]; […] 2-mercaptoethanol; 1 mg/ml BSA)) and 8 ul of water. Reactions were initiated by the addition of 10 ul of ATP Solution (49% (15 mM MgCl2; 75 uM ATP) 1% ([γ-^33P]ATP: Stock 1 mCi/1000; 3000Ci/mmol (Perkin Elmer)) and 10 ul of substrate peptide solution (RSRSSYPAGT, dissolved in water at a concentration of 1 mM), Reactions were maintained for 10 min at 30° C. The reactions were quenched with 100 ul of 0.75% Phosphoric acid, then transferred to and filtered through a Phosphocellulose filter plate (Millipore, MSPH-N6B-50). After washing each well 4 times with 0.75% Phosphoric acid, scintillation fluid (20 uL) was added to each well and the residual radioactivity was measured using a Wallac luminescence counter.

K-562 = assay: Alamar Blue cell proliferation assay, K-562; type: cell-based; settings: Homo sapiens
Experimental: as §1, §2, §3, §4, §5, §6, §7, §8, §9, §10

MDAMB231 = assay: Alamar Blue cell proliferation assay, MDAMB231; type: cell-based; settings: Homo sapiens
Experimental: as §1, §2, §3, §4, §5, §6, §7, §8, §9, §10

MV-4-11 = assay: Alamar Blue cell proliferation assay, MV-4-11; type: cell-based; settings: Homo sapiens
Experimental: as §1, §2, §3, §4, §5, §6, §7, §8, §9, §10

[2] = tested on: PC-3 human prostatic cancer cells; assay: Alamar Blue cell proliferation assay, PC3; type: cell-based
Experimental: as §1, §2, §3, §4, §5, §6, §7, §8, §9, §10

recombinant human CK2 = target: T1, recombinant human CK2 (Homo sapiens, UniProt P68400); assay: CK2 assay (cell-free, 33P-ATP filter plate); type: biochemical
T1 construct: purchased Upstate
Experimental: Modulatory activity of compounds described herein was assessed in vitro in cell-free CK2 assays by the following method.
Test compounds in aqueous solution were added at a volume of 10 microliters, to a reaction mixture comprising 10 microliters Assay Dilution Buffer (ADB; 20 mM MOPS, pH 7.2, 25 mM beta-glycerolphosphate, 5 mM EGTA, 1 mM sodium orthovanadate and 1 mM dithiothreitol), 10 microliters of substrate peptide (RRRDDDSDDD, dissolved in ADB at a concentration of 1 mM), 10 microliters of recombinant human CK2 (25 ng dissolved in ADB; Upstate). Reactions were initiated by the addition of 10 microliters of ATP Solution (90% 75 mM MgCl2, 75 micromolar ATP dissolved in ADB; 10% [γ-^33P]ATP (stock 1 mCi/100 μl; 3000 Ci/mmol (Perkin Elmer) and maintained for 10 minutes at 30 degrees C. The reactions were quenched with 100 microliters of 0.75% phosphoric acid, then transferred to and filtered through a phosphocellulose filter plate (Millipore). After washing each well 5 times with 0.75% phosphoric acid, the plate was dried under vacuum for 5 min and, following the addition of 15 ul of scintillation fluid to each well, the residual radioactivity was measured using a Wallac luminescence counter.

[3] = MIA PaCa-2, Table 1, read-out: AB: MiaPaCa IC50
[4] = K562, K-562, Table 1, read-out: AB: K-562 IC50
[5] = MDA-MB-231, MDAMB231, Table 1, read-out: AB: MDAMB231 IC50
[6] = MV4-11, MV-4-11, Table 1, read-out: AB: MV-4-11 IC50
[7] = PC-3, PC3, Table 1, read-out: AB: PC3
[8] = MIA PaCa-2, Table 2, read-out: AB: MiaPaCa IC50
[9] = K562, K-562, Table 2, read-out: AB: K-562 IC50
[10] = MDA-MB-231, MDAMB231, Table 2, read-out: AB: MDAMB231 IC50
[11] = MV4-11, MV-4-11, Table 2, read-out: AB: MV-4-11 IC50
[12] = PC3, Table 2, read-out: AB: PC3 IC50

Chain of recombinant human PIM2 (Q9P1W9 whole entry): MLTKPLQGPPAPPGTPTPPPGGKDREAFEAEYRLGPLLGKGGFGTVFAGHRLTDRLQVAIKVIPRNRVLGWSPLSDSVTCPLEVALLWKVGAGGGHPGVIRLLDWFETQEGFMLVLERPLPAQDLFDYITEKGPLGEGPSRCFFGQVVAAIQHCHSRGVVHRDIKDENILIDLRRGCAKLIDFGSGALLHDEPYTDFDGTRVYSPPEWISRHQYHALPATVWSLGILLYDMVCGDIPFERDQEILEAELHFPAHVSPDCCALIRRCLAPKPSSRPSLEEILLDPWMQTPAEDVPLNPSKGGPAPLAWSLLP
Chain of recombinant PIM-1 (P11309 whole entry): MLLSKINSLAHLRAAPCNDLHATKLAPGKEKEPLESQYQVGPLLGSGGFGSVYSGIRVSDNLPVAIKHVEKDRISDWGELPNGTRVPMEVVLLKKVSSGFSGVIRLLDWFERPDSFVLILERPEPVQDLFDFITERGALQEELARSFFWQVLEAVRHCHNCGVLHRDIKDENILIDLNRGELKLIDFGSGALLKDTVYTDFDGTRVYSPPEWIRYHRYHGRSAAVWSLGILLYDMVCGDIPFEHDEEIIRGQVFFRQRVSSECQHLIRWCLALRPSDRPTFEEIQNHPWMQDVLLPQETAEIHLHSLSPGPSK
T1 sequence (P68400 whole entry): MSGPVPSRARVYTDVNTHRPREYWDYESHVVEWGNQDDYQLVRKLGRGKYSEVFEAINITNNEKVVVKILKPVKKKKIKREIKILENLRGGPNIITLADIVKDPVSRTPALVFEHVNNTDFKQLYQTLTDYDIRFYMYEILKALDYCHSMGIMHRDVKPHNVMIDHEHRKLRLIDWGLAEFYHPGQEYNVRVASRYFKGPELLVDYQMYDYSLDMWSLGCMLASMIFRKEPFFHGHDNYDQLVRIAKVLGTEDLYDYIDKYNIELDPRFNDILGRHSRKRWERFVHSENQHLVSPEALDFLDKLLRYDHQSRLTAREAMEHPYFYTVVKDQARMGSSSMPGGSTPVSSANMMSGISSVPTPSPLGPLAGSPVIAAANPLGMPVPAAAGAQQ
T1 sequence (P67870 whole entry partner): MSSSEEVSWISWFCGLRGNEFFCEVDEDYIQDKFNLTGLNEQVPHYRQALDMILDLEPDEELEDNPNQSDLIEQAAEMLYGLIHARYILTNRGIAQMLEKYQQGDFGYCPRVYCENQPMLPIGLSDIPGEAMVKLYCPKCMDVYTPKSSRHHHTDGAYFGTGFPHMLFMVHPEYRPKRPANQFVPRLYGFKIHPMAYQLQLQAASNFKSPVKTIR

Structure (SMILES)	IC50 (recombinant PIM-1; Table 1)	IC50 [1, 3]	IC50 (K-562; [4])	IC50 (MDAMB231; [5])	IC50 (MV-4-11; [6])	IC50 [2, 7]	IC50 (recombinant human CK2; Table 1)	also measured
O=C1NC(=S)S/C1=C\c1ccc(-c2cccc(C(=O)NCCN3CCCC3)c2)o1	74 nM	> 10000 nM	> 10000 nM	> 10000 nM	> 10000 nM	> 30000 nM		IC50 (recombinant human PIM2; Table 1): 704 nM
CN1CCCCC1CNC(=O)c1ccc(-c2ccc(/C=C3\SC(=S)NC3=O)o2)cc1 (stereo not drawn)	37 nM	> 10000 nM	> 10000 nM	> 10000 nM	> 10000 nM	> 30000 nM	471 nM	
O=C1NC(=O)/C(=C\c2ccc(-c3ccc(C(=O)O)cc3)o2)S1								IC50 (recombinant PIM-1; Table 2): 41 nM; IC50 [1, 8]: > 10000 nM; IC50 (K-562; [9]): > 10000 nM; IC50 (MDAMB231; [10]): > 10000 nM; IC50 (MV-4-11; [11]): > 1000 nM; IC50 (recombinant human CK2; Table 2): 9 nM; IC50 [2, 12]: > 30000 nM
CN1CCCN(c2cncc(-c3ccc(/C=C4\SC(=S)NC4=O)c(F)c3)n2)CC1								IC50 (recombinant PIM-1; Table 5): 50 nM; IC50 (recombinant human PIM2; Table 5): 190 nM; IC50 (recombinant human CK2; Table 5): 320 nM
COc1ccc(/C=C2\SC(=O)NC2=O)cc1-c1cncc(N2CCCNCC2)n1								inhibition at 2.5 µM (recombinant human PIM2; @ 2.5 uM, Table 6, read-out: PIM2: % inh @ 2.5 uM): 98.5%; IC50 (recombinant human CK2; Table 6): 472 nM
Cn1cncc1CNC(=O)c1ccc(-c2ccc(/C=C3\SC(=S)NC3=O)o2)cc1	35 nM	> 10000 nM	> 10000 nM	> 10000 nM	> 10000 nM	> 30000 nM	108 nM	
O=C1NC(=S)S/C1=C\c1ccc(-c2cccc(C(=O)N3CCCNCC3)c2)o1	9 nM	> 10000 nM	> 10000 nM	> 10000 nM	> 10000 nM	> 30000 nM	412 nM	
O=C1NC(=S)S/C1=C\c1ccc(-c2cccc(C(=O)NN3CCCCC3)c2)o1	86 nM	> 10000 nM	> 10000 nM	> 10000 nM	> 10000 nM	> 30000 nM	551 nM	
CN1CCCN(C(=O)c2ccc(-c3ccc(/C=C4/SC(=O)NC4=O)o3)cc2)CC1								IC50 (recombinant PIM-1; Table 2): 266 nM; IC50 [1, 8]: > 10000 nM; IC50 (K-562; [9]): > 10000 nM; IC50 (MDAMB231; [10]): > 10000 nM; IC50 (MV-4-11; [11]): > 1000 nM; IC50 (recombinant human CK2; Table 2): 430 nM; IC50 [2, 12]: > 30000 nM
CC(=O)NC1CCN(C(=O)c2cccc(-c3ccc(/C=C4\SC(=S)NC4=O)o3)c2)C1 (stereo not drawn)	38 nM	> 10000 nM	> 10000 nM	> 10000 nM	> 10000 nM	> 30000 nM	444 nM	
O=C1NC(=S)S/C1=C\c1ccc(-c2cccc(C(=O)N3CCC[C@H]3CO)c2)o1	12 nM	> 10000 nM	> 10000 nM	> 10000 nM	175 nM	> 30000 nM	37 nM	
O=C1NC(=S)S/C1=C\c1ccc(-c2ccc(C(=O)NCc3ccccn3)cc2)o1	286 nM	> 10000 nM	> 10000 nM	> 10000 nM	8830 nM	> 30000 nM	40 nM	
Cc1nccn1CCNC(=O)c1ccc(-c2ccc(/C=C3\SC(=S)NC3=O)o2)cc1	14 nM	> 10000 nM	> 10000 nM	> 10000 nM	> 10000 nM	> 30000 nM	226 nM	
CN1CCCN(C(=O)c2cccc(-c3ccc(/C=C4\SC(=S)NC4=O)o3)c2)CC1	5 nM	2300 nM	2890 nM	> 10000 nM	406 nM	> 30000 nM	47 nM	IC50 (recombinant human PIM2; Table 1): 13 nM
CN(C)NC(=O)c1cccc(-c2ccc(/C=C3\SC(=S)NC3=O)o2)c1	36 nM	> 10000 nM	> 10000 nM	> 10000 nM	> 10000 nM	> 30000 nM	94 nM	
CN1CCCN(c2cncc(-c3cccc(/C=C4\SC(=O)N(C)C4=O)c3)n2)CC1								IC50 (recombinant PIM-1; Table 5): 440 nM; IC50 (recombinant human PIM2; Table 5): 2350 nM; IC50 (recombinant human CK2; Table 5): > 5000 nM
NC(=O)c1cccc(-c2ccc(/C=C3\SC(=S)NC3=O)o2)c1	4 nM	> 10000 nM	> 10000 nM	> 10000 nM	> 10000 nM	> 10000 nM	4 nM	
O=C1NC(=S)S/C1=C\c1ccc(-c2cccc(C(=O)NNc3ccnc4cc(Cl)ccc34)c2)o1	146 nM	> 10000 nM	> 10000 nM	> 10000 nM	> 10000 nM	> 30000 nM	266 nM	
NCCN1CCN(C(=O)c2ccc(-c3ccc(/C=C4\SC(=S)NC4=O)o3)cc2)CC1	19 nM	> 10000 nM	> 10000 nM	> 10000 nM	> 1000 nM	> 30000 nM	196 nM	
O=C1NC(=S)S/C1=C\c1ccc(-c2cccc(C(=O)NN3CCN(CCO)CC3)c2)o1	162 nM	> 10000 nM	> 10000 nM	> 10000 nM	> 10000 nM	> 30000 nM	288 nM	
CCN(CC)CCNC(=O)c1ccc(-c2ccc(/C=C3\SC(=S)NC3=O)o2)cc1	6 nM	> 10000 nM	> 10000 nM	> 10000 nM	> 10000 nM	> 30000 nM	131 nM	
COCCNC(=O)c1cccc(-c2ccc(/C=C3\SC(=S)NC3=O)o2)c1	31 nM	> 10000 nM	> 10000 nM	> 10000 nM	> 10000 nM	> 30000 nM	123 nM	
COc1cc(OC)cc(C(=O)N2CCCN(c3cncc(-c4cc(/C=C5/SC(=O)NC5=O)ccc4F)n3)CC2)c1								IC50 (recombinant human PIM2; Table 5): 175 nM; IC50 (recombinant human CK2; Table 5): 181 nM
CN1CCCN(c2cncc(-c3ccc(/C=C4/SC(=O)NC4=O)c(F)c3)n2)CC1								IC50 (recombinant PIM-1; Table 5): 1180 nM; IC50 (recombinant human PIM2; Table 5): > 2500 nM; IC50 (recombinant human CK2; Table 5): > 5000 nM
